Test results taken from patent US12594336B2, “Trace element solution” (WARBURTON TECHNOLOGY LIMITED, priority 2012, dated 2026).

What was measured:
[1] = Physical stability study (visual inspection) of stabilizer solutions with vitamin B12 at ambient temperature; format: physicochemical
Method: Based on known injectable processes, with organometallics complex with EDTA, incorporation of vitamin B12 was screened by testing 3 possible different stabilizers. • Second Phase consists in evaluating the physical and chemical stability of the formulations which have been developed during precedent phase with the aim to select stable formulation prototypes.
Physical stability study was performed at 5° C., 25° C./60% RH and 40° C./75% RH: T0, T1, T2 and T3 months. A visual inspection was checked at different periods in order to control the absence of precipitation in the formulations. Assay of vitamin B12 was followed up on stability at 25° C./60% RH and 40° C./75% RH: T0, T3 and T6 months.
Then a quantity of stock solution of vitamin B12 was incorporated in the mix to have a final concentration of 0.15% w/v.
Physical stability study was performed on 5 and 10% w/v butaphosphan (with vitamin B12) solutions at ambient temperature: […]

[2] = Feasibility study: incorporation/solubilisation of stabilizers in the EDTA-complexed trace element solution
Excerpt: Incorporation of vitamin B12 with different stabilizers was screened.
The following concentrations of butaphosphan have been tested:

physical stability, appearance ([1]; 5 and 10% w/v butaphosphan with vitamin B12 (0.15% w/v), ambient temperature, T1 week) | physical stability, appearance ([1]; 5 and 10% w/v butaphosphan with vitamin B12 (0.15% w/v), ambient temperature, T2 weeks) | physical stability, appearance ([1]; 5 and 10% w/v butaphosphan with vitamin B12 (0.15% w/v), ambient temperature, T4 weeks) | appearance of solution obtained ([2]; butaphosphan 5% w/v) | appearance of solution obtained ([2]; butaphosphan 10% w/v) | physical stability, appearance ([1]; 5 and 15% w/v glycine with vitamin B12, ambient temperature, T1 week) | physical stability, appearance ([1]; 5 and 15% w/v glycine with vitamin B12, ambient temperature, T2 weeks) | physical stability, appearance ([1]; 5 and 15% w/v glycine with vitamin B12, ambient temperature, T4 weeks) | Structure (SMILES)
dark clear solution | dark clear solution | dark clear solution | dark clear solution without particles | dark clear solution without particles | – | – | – | CCCCNC(C)(C)[PH](=O)O [butaphosphan, (1-Butylamino-1-methyl-ethyl)-phosphinic acid]
– | – | – | – | – | dark clear solution with particle | dark clear solution with particle | dark clear solution with particle | NCC(=O)O [glycine, Glycine]
